# Assay: Zeta-potential vs pH of cinacalcet emulsions containing sodium oleate
# Type: physicochemical
# Conditions: cinacalcet emulsion; for pH at which charge is zero: from linear regression line; for zeta-potential: in mV (unit assumed)
# Description: Preparation of Each Emulsion: the Emulsion were Prepared Using Substantially the same method as discussed above in Example 2 under “Laboratory scale preparation.” Briefly, the aqueous phase was prepared by adding appropriate amounts of glycerin and water to an appropriate container. The glycerin and water were mixed well and maintained at elevated temperatures (60-70° C.) by immersing the container in a water batch.
# The oil phase was prepared by adding appropriate oil and lecithin. The container was tared and the cinacalcet free base was added. Appropriate quantity of sodium oleate (between 0-1%) was added to this oil phase mixture. The oil/lecithin/cinacalcet mixture was mixed at an elevated temperature using sonicater probes to disperse/dissolve the lecithin, the Cinacalcet free base and the sodium oleate.
# The hot oil phase was transferred to the aqueous phase at elevated temperatures and homogenized to obtain coarse emulsion. Fine emulsion was obtained using a microfluidizer.
# Charge Measurement: Zeta-potential as a function of pH was determined using a Malvern Zetasizer Nano Series Model ZEN 3600 laser-scattering particle electrophoretic analyzer that measures the electrophoretic mobility and zeta potential distribution. Samples were prepared for the zeta potential titration by diluting each emulsion approximately 2500-fold in water. The pH of this mixture was noted after dilution, and then adjusted to a pH 9 using sodium hydroxide. The pH was then titrated down to pH 6 in 0.3 or 0.5 unit steps. Zeta potential measurements were taken at every step. The zeta-potential of each emulsion was plotted as a function of pH and fit to a linear regression line.
compound,measurement,setting,value
"C[C@@H](NCCCc1cccc(C(F)(F)F)c1)c1cccc2ccccc12 [Cinacalcet, N-(1-(R)-(1-naphthyl)ethyl]-3-[3-(trifluoromethyl)phenyl]-1-aminopropane]",pH at which charge is zero,0% Na Oleate,8.02
same,pH at which charge is zero,0.25% Na Oleate,7.87
same,pH at which charge is zero,0.5% Na Oleate,7.81
same,pH at which charge is zero,1% Na Oleate,7.54
same,zeta-potential,"pH 6.5, 0% Na Oleate",32.8
same,zeta-potential,"pH 6.5, 0.25% Na Oleate",36
same,zeta-potential,"pH 6.5, 0.5% Na Oleate",37.4
same,zeta-potential,"pH 6.5, 1% Na Oleate",24.5
same,zeta-potential,"pH 7.0, 0% Na Oleate",17.8
same,zeta-potential,"pH 7.0, 0.25% Na Oleate",28.1
same,zeta-potential,"pH 7.0, 0.5% Na Oleate",27.8
same,zeta-potential,"pH 7.0, 1% Na Oleate",23.8
same,zeta-potential,"pH 7.5, 0% Na Oleate",15.3
same,zeta-potential,"pH 7.5, 0.25% Na Oleate",7.24
same,zeta-potential,"pH 7.5, 0.5% Na Oleate",16.2
same,zeta-potential,"pH 7.5, 1% Na Oleate",4.87
same,zeta-potential,"pH 8.0, 0% Na Oleate",15
same,zeta-potential,"pH 8.0, 0.25% Na Oleate",2.83
same,zeta-potential,"pH 8.0, 0.5% Na Oleate",0.242
same,zeta-potential,"pH 8.0, 1% Na Oleate",−10.7
same,zeta-potential,"pH 8.5, 0% Na Oleate",−16.7
same,zeta-potential,"pH 8.5, 0.25% Na Oleate",−10
same,zeta-potential,"pH 8.5, 0.5% Na Oleate",−26.8
same,zeta-potential,"pH 8.5, 1% Na Oleate",−30.4
same,zeta-potential,"pH 9.0, 0% Na Oleate",−26.5
same,zeta-potential,"pH 9.0, 0.25% Na Oleate",−42.5
same,zeta-potential,"pH 9.0, 0.5% Na Oleate",−42.1
same,zeta-potential,"pH 9.0, 1% Na Oleate",−52.9

# From patent US8779004B2, “Stable emulsion formulations” (Amgen, Inc., priority 2006, dated 2014)
